Assay results as given in US9834571B2, “Compounds for inhibiting cell proliferation in EGFR-driven cancers” (ARIAD Pharmaceuticals, Inc., priority 2012, dated 2017).
Read-outs that look alike come from different tables or passages of the source.

Legend:
[1] = target: human EGFR (native sequence) (Homo sapiens, UniProt P00533); assay: Kinase inhibitory activity against human EGFR (native sequence); type: biochemical; conditions: 10 μM ATP, read-out: IC50 for kinase inhibition, EGFR
Summary of the method: (§1)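 Ten-point dose-response curves were run in singlicate from a 3 μM top concentration, with ATP at 10 μM.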

EGFR L858R = EGFR L858R (Homo sapiens, UniProt P00533, L858R); assay: Kinase inhibitory activity against EGFR bearing the L858R mutation; type: biochemical; conditions: 10 μM ATP, read-out: IC50 for kinase inhibition, EGFR L858R
Sequence of EGFR L858R (P00533 25-1210 L858R): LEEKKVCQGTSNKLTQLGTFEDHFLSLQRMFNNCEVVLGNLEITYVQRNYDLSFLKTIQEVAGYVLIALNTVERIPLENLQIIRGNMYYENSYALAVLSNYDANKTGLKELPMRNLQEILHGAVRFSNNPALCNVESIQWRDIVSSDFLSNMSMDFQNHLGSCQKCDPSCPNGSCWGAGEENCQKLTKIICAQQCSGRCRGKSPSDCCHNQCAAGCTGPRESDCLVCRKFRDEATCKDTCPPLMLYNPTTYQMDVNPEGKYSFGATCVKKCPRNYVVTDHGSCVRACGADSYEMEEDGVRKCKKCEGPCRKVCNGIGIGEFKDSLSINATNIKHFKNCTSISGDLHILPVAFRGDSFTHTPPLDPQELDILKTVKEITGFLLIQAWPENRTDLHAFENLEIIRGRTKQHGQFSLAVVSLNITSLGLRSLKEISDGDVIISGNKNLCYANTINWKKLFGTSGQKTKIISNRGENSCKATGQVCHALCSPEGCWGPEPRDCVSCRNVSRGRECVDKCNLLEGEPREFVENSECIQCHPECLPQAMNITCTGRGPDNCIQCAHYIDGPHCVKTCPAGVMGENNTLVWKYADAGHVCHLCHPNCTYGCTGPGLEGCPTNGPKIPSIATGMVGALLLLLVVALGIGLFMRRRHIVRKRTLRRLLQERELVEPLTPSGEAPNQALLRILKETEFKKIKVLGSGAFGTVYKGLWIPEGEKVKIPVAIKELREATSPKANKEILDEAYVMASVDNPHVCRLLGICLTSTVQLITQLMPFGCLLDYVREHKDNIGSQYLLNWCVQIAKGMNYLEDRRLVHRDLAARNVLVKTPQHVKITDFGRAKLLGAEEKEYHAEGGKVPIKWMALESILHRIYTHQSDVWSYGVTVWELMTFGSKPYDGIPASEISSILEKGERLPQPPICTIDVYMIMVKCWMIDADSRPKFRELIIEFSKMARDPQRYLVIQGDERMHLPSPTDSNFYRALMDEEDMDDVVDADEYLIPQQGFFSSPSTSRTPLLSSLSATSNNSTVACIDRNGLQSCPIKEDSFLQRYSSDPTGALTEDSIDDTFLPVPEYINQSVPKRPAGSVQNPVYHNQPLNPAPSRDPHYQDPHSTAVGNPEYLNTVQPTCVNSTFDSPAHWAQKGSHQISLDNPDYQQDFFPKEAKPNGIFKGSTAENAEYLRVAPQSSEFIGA
Summary of the method: as §1

EGFR L858R/T790M = EGFR L858R/T790M (Homo sapiens, UniProt P00533, L858R/T790M); assay: Kinase inhibitory activity against EGFR bearing the L858R/T790M double mutation; type: biochemical; conditions: 10 μM ATP, read-out: IC50 for kinase inhibition, EGFR L858R T790M
Sequence of EGFR L858R/T790M (P00533 25-1210 T790M/L858R): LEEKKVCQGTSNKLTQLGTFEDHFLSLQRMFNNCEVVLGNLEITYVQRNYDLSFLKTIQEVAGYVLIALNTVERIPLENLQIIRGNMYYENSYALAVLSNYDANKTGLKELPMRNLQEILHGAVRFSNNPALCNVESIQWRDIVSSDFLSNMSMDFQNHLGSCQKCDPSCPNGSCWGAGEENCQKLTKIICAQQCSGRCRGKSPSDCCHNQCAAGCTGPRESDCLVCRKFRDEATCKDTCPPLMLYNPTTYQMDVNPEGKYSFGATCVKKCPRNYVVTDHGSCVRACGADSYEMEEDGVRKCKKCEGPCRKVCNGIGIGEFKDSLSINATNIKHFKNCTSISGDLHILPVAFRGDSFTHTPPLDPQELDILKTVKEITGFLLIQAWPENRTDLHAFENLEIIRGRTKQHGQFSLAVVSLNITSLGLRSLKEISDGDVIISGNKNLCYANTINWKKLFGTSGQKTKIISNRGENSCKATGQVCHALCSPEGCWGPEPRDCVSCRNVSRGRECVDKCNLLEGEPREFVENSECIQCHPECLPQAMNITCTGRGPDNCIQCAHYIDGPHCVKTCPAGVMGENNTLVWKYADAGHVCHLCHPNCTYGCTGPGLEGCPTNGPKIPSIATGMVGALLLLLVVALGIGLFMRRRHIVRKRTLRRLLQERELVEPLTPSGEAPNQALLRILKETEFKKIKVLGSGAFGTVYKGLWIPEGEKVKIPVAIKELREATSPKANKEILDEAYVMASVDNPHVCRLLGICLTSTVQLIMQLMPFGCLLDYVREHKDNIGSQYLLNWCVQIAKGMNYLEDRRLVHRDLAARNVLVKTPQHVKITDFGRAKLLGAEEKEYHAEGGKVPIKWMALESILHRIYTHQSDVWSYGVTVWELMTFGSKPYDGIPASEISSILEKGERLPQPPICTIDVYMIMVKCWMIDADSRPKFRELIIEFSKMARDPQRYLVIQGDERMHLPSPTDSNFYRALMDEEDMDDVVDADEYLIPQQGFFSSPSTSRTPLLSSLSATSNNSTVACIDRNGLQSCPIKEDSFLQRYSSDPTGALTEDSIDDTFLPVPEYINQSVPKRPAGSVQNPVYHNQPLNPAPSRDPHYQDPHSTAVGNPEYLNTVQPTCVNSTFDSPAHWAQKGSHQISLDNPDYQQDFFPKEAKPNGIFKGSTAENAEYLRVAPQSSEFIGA
Summary of the method: as §1

[2] = target: T1, BaF3 cells expressing the target EGFR mutations (Homo sapiens, UniProt P00533, T790M, cells depend on it, form not given); assay: Antiproliferative activity (MTT) against BaF3 cells expressing the target EGFR mutations; type: cell-based; conditions: BAF3 EGFR DEL T790M PURO POOL cells, read-out: IC50, BAF3 EGFR DEL T790M PURO POOL
T1 construct: IC50, BAF3 EGFR DEL T790M PURO POOL; other: BAF3 EGFR DEL T790M PURO POOL cells, MTT; other: BAF3 EGFR DEL T790M PURO POOL cells; MTT
Summary of the method: (§2)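 Antiproliferative effect was measured by MTT in BaF3 cells engineered to express mutant EGFR, with wildtype-EGFR BaF3 cells as the control line.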

[3] = target: T2, BaF3 cells expressing the target EGFR mutations (Homo sapiens, UniProt P00533, T790M/L858R, cells depend on it); assay: as above; type: cell-based; conditions: BAF3 EGFR L858R-T790M PURO POOL cells, read-out: IC50, BAF3 EGFR L858R-T790M PURO POOL
T2 construct: IC50, BAF3 EGFR L858R-T790M PURO POOL; other: BAF3 EGFR L858R-T790M PURO POOL cells, MTT; IC50, BAF3 EGFR L858R-T790M PURO POOL; other: BAF3 EGFR L858R-T790M PURO POOL cells; MTT
T2 sequence (P00533 whole entry T790M/L858R): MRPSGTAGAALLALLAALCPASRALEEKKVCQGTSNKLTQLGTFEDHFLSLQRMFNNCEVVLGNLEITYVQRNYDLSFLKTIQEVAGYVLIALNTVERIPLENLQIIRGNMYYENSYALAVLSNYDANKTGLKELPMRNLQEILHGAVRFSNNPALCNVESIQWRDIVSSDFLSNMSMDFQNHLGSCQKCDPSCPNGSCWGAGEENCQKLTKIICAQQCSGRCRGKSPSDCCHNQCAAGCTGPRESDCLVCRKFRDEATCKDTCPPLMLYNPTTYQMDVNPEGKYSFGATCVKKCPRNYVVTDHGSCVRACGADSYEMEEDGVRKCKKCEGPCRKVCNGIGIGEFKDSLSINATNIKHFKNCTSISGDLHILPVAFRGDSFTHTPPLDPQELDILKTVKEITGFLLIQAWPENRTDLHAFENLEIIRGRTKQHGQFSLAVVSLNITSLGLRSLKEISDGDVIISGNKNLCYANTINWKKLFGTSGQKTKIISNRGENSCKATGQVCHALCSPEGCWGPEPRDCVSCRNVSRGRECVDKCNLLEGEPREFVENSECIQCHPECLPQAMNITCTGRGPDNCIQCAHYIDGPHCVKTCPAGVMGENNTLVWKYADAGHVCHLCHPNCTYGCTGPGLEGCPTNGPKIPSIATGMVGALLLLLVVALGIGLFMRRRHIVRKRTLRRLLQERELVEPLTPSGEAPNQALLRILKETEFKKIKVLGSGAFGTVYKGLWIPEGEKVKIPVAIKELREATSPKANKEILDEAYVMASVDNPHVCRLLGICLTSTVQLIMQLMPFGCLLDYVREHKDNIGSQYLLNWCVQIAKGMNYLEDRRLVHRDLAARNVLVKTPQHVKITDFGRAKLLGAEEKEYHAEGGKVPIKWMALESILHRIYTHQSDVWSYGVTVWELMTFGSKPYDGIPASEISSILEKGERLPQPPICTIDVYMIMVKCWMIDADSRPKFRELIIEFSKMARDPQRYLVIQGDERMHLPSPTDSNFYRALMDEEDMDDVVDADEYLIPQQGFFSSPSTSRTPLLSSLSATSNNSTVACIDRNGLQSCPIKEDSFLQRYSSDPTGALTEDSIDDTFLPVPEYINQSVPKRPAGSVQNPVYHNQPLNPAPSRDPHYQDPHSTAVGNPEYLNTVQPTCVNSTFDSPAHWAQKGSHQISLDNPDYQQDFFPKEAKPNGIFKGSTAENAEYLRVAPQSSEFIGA
Summary of the method: as §2

[4] = system: BaF3 cells expressing wildtype EGFR; assay: Antiproliferative activity (MTT) against control BaF3 cells expressing wildtype EGFR; type: cell-based; conditions: Mus musculus
Summary of the method: as §2

[5] = 10 pt curves, 3 μM top concentration
[6] = EGFR L858R/T790M double mutation

Sequence of human EGFR (native sequence) (P00533 25-1210): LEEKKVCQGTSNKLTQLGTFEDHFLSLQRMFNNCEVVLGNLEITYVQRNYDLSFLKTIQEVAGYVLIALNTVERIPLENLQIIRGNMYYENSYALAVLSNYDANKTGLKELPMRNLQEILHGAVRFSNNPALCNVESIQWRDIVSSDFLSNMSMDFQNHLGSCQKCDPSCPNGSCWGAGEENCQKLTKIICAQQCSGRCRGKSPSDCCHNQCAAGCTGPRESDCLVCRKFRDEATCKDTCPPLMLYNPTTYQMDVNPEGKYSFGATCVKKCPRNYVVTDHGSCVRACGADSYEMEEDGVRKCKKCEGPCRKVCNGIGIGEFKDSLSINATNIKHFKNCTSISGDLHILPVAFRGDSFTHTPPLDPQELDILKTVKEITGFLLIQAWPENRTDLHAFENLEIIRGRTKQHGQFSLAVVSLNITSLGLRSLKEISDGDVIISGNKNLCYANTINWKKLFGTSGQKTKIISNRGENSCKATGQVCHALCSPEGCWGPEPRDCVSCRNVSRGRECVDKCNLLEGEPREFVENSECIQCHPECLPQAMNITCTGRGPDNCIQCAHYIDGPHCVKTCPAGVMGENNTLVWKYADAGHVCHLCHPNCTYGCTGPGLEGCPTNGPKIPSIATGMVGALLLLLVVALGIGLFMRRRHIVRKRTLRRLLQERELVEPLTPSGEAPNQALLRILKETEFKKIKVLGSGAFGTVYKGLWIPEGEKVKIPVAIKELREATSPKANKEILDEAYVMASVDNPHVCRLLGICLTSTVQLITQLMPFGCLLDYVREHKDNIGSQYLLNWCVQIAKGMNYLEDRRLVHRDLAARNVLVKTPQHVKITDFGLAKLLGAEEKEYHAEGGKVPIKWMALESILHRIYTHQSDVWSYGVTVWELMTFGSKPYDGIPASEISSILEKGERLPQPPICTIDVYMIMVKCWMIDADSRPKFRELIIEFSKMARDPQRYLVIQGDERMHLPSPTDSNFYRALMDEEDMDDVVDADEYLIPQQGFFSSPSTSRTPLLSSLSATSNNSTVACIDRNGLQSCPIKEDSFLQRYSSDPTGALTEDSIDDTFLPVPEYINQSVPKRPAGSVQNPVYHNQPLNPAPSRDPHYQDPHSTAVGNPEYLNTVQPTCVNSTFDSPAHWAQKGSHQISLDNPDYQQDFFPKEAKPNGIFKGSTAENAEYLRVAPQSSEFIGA

Structure (SMILES) | IC50 [1, 5] | IC50 (EGFR L858R; [5]) | IC50 (EGFR L858R/T790M; [5]) | GI50 [2] | GI50 [3] | IC50 ([1]; human EGFR native sequence) | IC50 (EGFR L858R; EGFR L858R) | IC50 (EGFR L858R/T790M; [6]) | IC50 ([4]; BAF3 parental cells) | IC50 ([4]; BAF3 PARENTAL cells (control))
CC#CC(=O)Nc1cc(Nc2ncc(Cl)c(Nc3ccccc3P(C)(C)=O)n2)c(OC)cc1N1CCC(N2CCN(C)CC2)CC1 [Example 106, N-(5-((5-chloro-4-((2-(dimethylphosphoryl)phenyl)amino)pyrimidin-2-yl)amino)-4-methoxy-2-(4-(4-methylpiperazin-1-yl)piperidin-1-yl)phenyl)but-2-ynamide] | 50 to 100 nM | < 50 nM | < 50 nM | < 50 nM | < 50 nM |  |  |  | ≥ 250 nM | 
COCC#CC(=O)Nc1cc(Nc2ncc(Cl)c(Nc3ccccc3P(C)(C)=O)n2)c(OC)cc1N1CCOCC1 [Example 105, N-(5-((5-chloro-4-((2-(dimethylphosphoryl)phenyl)amino)pyrimidin-2-yl)amino)-4-methoxy-2-morpholinophenyl)-4-methoxybut-2-ynamide] | < 50 nM | < 50 nM | < 50 nM | < 50 nM | < 50 nM |  |  |  | ≥ 250 nM | 
Cc1ccc(NC(=O)CCl)cc1Nc1ncc(Cl)c(Nc2ccccc2P(C)(C)=O)n1 [Example 148, 2-chloro-N-(3-((5-chloro-4-((2-(dimethylphosphoryl)phenyl)amino)pyrimidin-2-yl)amino)-4-methylphenyl)acetamide] | < 50 nM | < 50 nM | < 50 nM | < 50 nM | < 50 nM |  |  |  | ≥ 250 nM | 
COc1cc(N2CCOCC2)c(NC(=O)C#CCCN(C)C)cc1Nc1ncc(Cl)c(Nc2ccccc2P(C)(C)=O)n1 [Example 114, N-(5-((5-chloro-4-((2-(dimethylphosphoryl)phenyl)amino)pyrimidin-2-yl)amino)-4-methoxy-2-morpholinophenyl)-5-(dimethylamino)pent-2-ynamide] | < 50 nM | < 50 nM | < 50 nM | < 50 nM | < 50 nM |  |  |  | ≥ 250 nM | 
COc1ccc(NC(=O)/C=C\C(=O)N(C)C)cc1Nc1ncc(Cl)c(Nc2ccccc2P(C)(C)=O)n1 [Example 62, N1-(3-((5-chloro-4-((2-(dimethylphosphoryl)phenyl)amino)pyrimidin-2-yl)amino)-4-methoxyphenyl)-N4,N4-dimethylmaleamide] |  |  |  | ≥ 250 nM | ≥ 250 nM | ≥ 250 nM | ≥ 250 nM | ≥ 250 nM |  | ≥ 250 nM
C=CC(=O)Nc1cc(Nc2ncc(Cl)c(Nc3ccccc3P(C)(C)=O)n2)c(OC)cc1N(C)CCN(C)CCF [Example 67, N-(5-((5-chloro-4-((2-(dimethylphosphoryl)phenyl)amino)pyrimidin-2-yl)amino)-2-((2-((2-fluoroethyl)(methyl)amino)ethyl)(methyl)amino)-4-methoxyphenyl)acrylamide] |  |  |  | < 50 nM | < 50 nM | < 50 nM | < 50 nM | < 50 nM |  | ≥ 250 nM

The next lines start with results.

IC50 [1, 5] | IC50 (EGFR L858R; [5]) | IC50 (EGFR L858R/T790M; [5]) | GI50 [2] | GI50 [3] | IC50 ([1]; human EGFR native sequence) | IC50 (EGFR L858R; EGFR L858R) | IC50 (EGFR L858R/T790M; [6]) | Structure (SMILES) | IC50 ([4]; BAF3 parental cells) | IC50 ([4]; BAF3 PARENTAL cells (control))
< 50 nM | < 50 nM | < 50 nM | < 50 nM | 101 to 250 nM |  |  |  | C=CC(=O)Nc1cc(Nc2ncc(Cl)c(Nc3ccccc3P(C)(C)=O)n2)c(OC)cc1C#CCN1CCN(C)CC1 [Example 159, N-(5-((5-chloro-4-((2-(dimethylphosphoryl)phenyl)amino)pyrimidin-2-yl)amino)-4-methoxy-2-(3-(4-methylpiperazin-1-yl)prop-1-yn-1-yl)phenyl)acrylamide] | ≥ 250 nM | 
101 to 250 nM | < 50 nM | < 50 nM | < 50 nM | 101 to 250 nM |  |  |  | C=CC(=O)Nc1ccc(Nc2ncc(Cl)c(Nc3cccc(OCCN4CCCCC4)c3P(C)(C)=O)n2)c(OC)c1 [Example 107, N-(4-((5-chloro-4-((2-(dimethylphosphoryl)-3-(2-(piperidin-1-yl)ethoxy)phenyl)amino)pyrimidin-2-yl)amino)-3-methoxyphenyl)acrylamide] | ≥ 250 nM | 
 |  |  | < 50 nM | < 50 nM | < 50 nM | < 50 nM | < 50 nM | C=CC(=O)Nc1cc(Nc2ncc(Cl)c(Nc3ccccc3P(C)(C)=O)n2)c(OC)cc1OC(COC)CN1CCC1 (stereo not drawn) [Example 15, N-(2-((1-(azetidin-1-yl)-3-methoxypropan-2-yl)oxy)-5-((5-chloro-4-((2-(dimethylphosphoryl)phenyl)amino)pyrimidin-2-yl)amino)-4-methoxyphenyl)acrylamide] |  | ≥ 250 nM
 |  |  | < 50 nM | < 50 nM | < 50 nM | < 50 nM | < 50 nM | CCOC(=O)/C=C/C(=O)Nc1ccc(OC)c(Nc2ncc(Cl)c(Nc3ccccc3P(C)(C)=O)n2)c1 [Example 75, (E)-ethyl 4-((3-((5-chloro-4-((2-(dimethylphosphoryl)phenyl)amino)pyrimidin-2-yl)amino)-4-methoxyphenyl)amino)-4-oxobut-2-enoate] |  | ≥ 250 nM
 |  |  | < 50 nM | < 50 nM | < 50 nM | < 50 nM | < 50 nM | C=CC(=O)Nc1cc(Nc2ncc(Cl)c(Nc3ccccc3P(C)(C)=O)n2)c(OC)cc1N1CCCC(N(C)C)C1 (stereo not drawn) [Example 30, N-(5-((5-chloro-4-((2-(dimethylphosphoryl)phenyl)amino)pyrimidin-2-yl)amino)-2-(3-(dimethylamino)piperidin-1-yl)-4-methoxyphenyl)acrylamide] |  | ≥ 250 nM
< 50 nM | < 50 nM | < 50 nM | 101 to 250 nM | ≥ 250 nM |  |  |  | C=CC(=O)Nc1ccc(OC)c(Nc2ncc(C#N)c(Nc3ccccc3P(C)(C)=O)n2)c1 [Example 139, N-(3-((5-cyano-4-((2-(dimethylphosphoryl)phenyl)amino)pyrimidin-2-yl)amino)-4-methoxyphenyl)acrylamide] | ≥ 250 nM | 
 |  |  | < 50 nM | 101 to 250 nM | < 50 nM | < 50 nM | < 50 nM | C=CC(=O)Nc1cc(Nc2ncc(Cl)c(Nc3ccccc3P(C)(C)=O)n2)c(OC)cc1N1CCC(N(C)CCN(CC)CC)C1 (stereo not drawn) [Example 38, N-(5-((5-chloro-4-((2-(dimethylphosphoryl)phenyl)amino)pyrimidin-2-yl)amino)-2-(3-((2-(diethylamino)ethyl)(methyl)amino)pyrrolidin-1-yl)-4-methoxyphenyl)acrylamide] |  | ≥ 250 nM
 |  |  | 50 to 100 nM | 101 to 250 nM | < 50 nM | < 50 nM | < 50 nM | C=CC(=O)Nc1cc(Nc2ncc(Cl)c(Nc3ccccc3P(C)(C)=O)n2)c(OC)cc1N1CCC(N2CCN(C)CC2)C1 (stereo not drawn) [Example 37, N-(5-((5-chloro-4-((2-(dimethylphosphoryl)phenyl)amino)pyrimidin-2-yl)amino)-4-methoxy-2-(3-(4-methylpiperazin-1-yl)pyrrolidin-1-yl)phenyl)acrylamide] |  | ≥ 250 nM
 |  |  | < 50 nM | 101 to 250 nM | 50 to 100 nM | < 50 nM | < 50 nM | C=CC(=O)Nc1cc(Nc2ncc(Cl)c(Nc3ccccc3P(C)(C)=O)n2)c(OC)cc1N1CCC(N2CCCC2)CC1 [Example 72, N-(5-((5-chloro-4-((2-(dimethylphosphoryl)phenyl)amino)pyrimidin-2-yl)amino)-4-methoxy-2-(4-(pyrrolidin-1-yl)piperidin-1-yl)phenyl)acrylamide] |  | ≥ 250 nM
